Measured values as given in patent US10344019B2 (priority 2010, dated 2019).
Read-outs that look alike come from different tables or passages of the source.

How the values were obtained:
Type in all cases: cell-based
[1] = tested on: HCV 1a RLuc cells (dicistronic genotype 1a H77 replicon, RLuc reporter); assay: microbe, parasite or virus in culture; conditions: Hepatitis C virus, read-out: 1a
Method in brief: (§1)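 Replicons used: genotype 1b Con1, 1a H77, 2a JFH-1, and a 2a JFH-1 chimera with J6-strain NS5A (M31 present), all dicistronic.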

[2] = tested on: HCV 1b RLuc cells (dicistronic genotype 1b Con1 replicon, RLuc reporter); assay: microbe, parasite or virus in culture; conditions: Hepatitis C virus, read-out: 1b (nM)
Method in brief: as §1

[3] = tested on: HCV 2a JFH-1 Rluc cells (dicistronic genotype 2a JFH-1 replicon, RLuc reporter); assay: microbe, parasite or virus in culture; conditions: Hepatitis C virus, read-out: 2a JFH
Method in brief: as §1

[4] = tested on: HCV 2b Rluc cells (NS5A chimeric genotype 2a JFH-1 replicon with genotype 2b MD2b-1 NS5A gene, M31 present); assay: microbe, parasite or virus in culture; conditions: Hepatitis C virus, read-out: 2b
Method in brief: (§2)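 Replicon cells stably carrying the listed RLuc-encoding dicistronic replicons were seeded and treated with DMSO serial dilutions of compound (10 mM stocks) diluted into culture medium. After 72 h, cells were lysed and Renilla luciferase activity measured. EC50 was derived by non-linear regression.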

[5] = tested on: HCV 3a RLuc cells (NS5A chimeric genotype 1b Con1 replicon with consensus genotype 3a NS5A gene); assay: microbe, parasite or virus in culture; conditions: Hepatitis C virus
Method in brief: as §2

[6] = tested on: HCV 4a Rluc cells (NS5A chimeric genotype 1b Con1 replicon with genotype 4a NS5A gene); assay: microbe, parasite or virus in culture; conditions: Hepatitis C virus, read-out: 4a
Method in brief: as §2

[7] = tested on: HCV 2a Rluc cells (NS5A chimeric genotype 2a JFH-1 replicon with genotype 2a J6 strain NS5A gene, M31 present); assay: HCV replicon reporter assay, genotype 2a J6 (M31 present); conditions: Hepatitis C virus, read-out: 2a J6
Method in brief: as §1

[8] = read-out: 3a, genotype 3a replicon
[9] = genotype 2a JFH-1 RLuc replicon
[10] = read-out: 3a, genotype 3a NS5A chimeric replicon

Row | Structure (SMILES) | EC50 ([1]; 72 h, Table 1, genotype 1a H77 replicon, 72 hours) | EC50 ([2]; 72 h) | EC50 ([3]; 72 h, Table 1, genotype 2a JFH-1 replicon, 72 hours) | EC50 [4] | EC50 ([5]; read-out: 3a, Table 1, genotype 3a NS5A chimeric replicon) | EC50 [6] | EC50 [7] | EC50 ([1]; genotype 1a replicon) | EC50 [2] | EC50 ([3]; genotype 2a JFH-1 replicon) | EC50 [5, 8] | EC50 ([1]; genotype 1a H77 RLuc replicon) | EC50 [3, 9] | EC50 [5, 10]
1 | COC(=O)N[C@H](C(=O)N1CCC[C@H]1c1ncc(-c2ccc3c4c(ccc3c2)-c2ccc(-c3cnc([C@@H]5CCCN5C(=O)[C@H](NC(=O)OC)c5ccccc5)[nH]3)cc2CO4)[nH]1)C(C)C [Example 1] | 0.001 to 0.999 nM | 0.008 nM | 0.001 to 0.999 nM | > 44 nM | 0.001 to 0.99 nM | 0.001 to 0.99 nM | > 44 nM | – | – | – | – | – | – | –
2 | CCC(=O)N[C@@H](C(=O)N1CCC[C@H]1c1ncc(-c2ccc(-c3ccc4c(ccc5nc([C@@H]6C[C@H](COC)CN6C(=O)[C@@H](NC(=O)OC)C(C)C)[nH]c54)c3)cc2)[nH]1)c1ccccc1 [Example 479] | – | – | – | 0.001 to 0.999 nM | – | 0.001 to 0.99 nM | 0.001 to 0.999 nM | 0.001 to 0.999 nM | 0.034 nM | 0.001 to 0.999 nM | 0.001 to 0.99 nM | – | – | –
3 | CCC(=O)N[C@@H](C(=O)N1CCC[C@H]1c1ncc(-c2cc3c4c(c2)OCc2cc(-c5cnc([C@@H]6CCCN6C(=O)[C@H](NC(=O)CC)c6ccccc6)[nH]5)cc(c2-4)OC3)[nH]1)c1ccccc1 [Example 450] | – | – | – | 0.001 to 0.999 nM | – | 0.001 to 0.99 nM | 0.001 to 0.999 nM | 0.001 to 0.999 nM | 0.427 nM | 0.001 to 0.999 nM | 0.001 to 0.99 nM | – | – | –
4 | COC[C@H]1C[C@@H](c2nc3ccc4cc5c(cc4c3[nH]2)OCc2cc(-c3cnc([C@@H]4CCCN4C(=O)[C@H](NC(=O)C4CC4)c4ccccc4)[nH]3)ccc2-5)N(C(=O)[C@@H](NC(=O)OC)C(C)C)C1 [Example 510] | – | – | – | 0.001 to 0.999 nM | – | 0.001 to 0.99 nM | 0.001 to 0.999 nM | – | 0.05 nM | – | – | 0.001 to 0.999 nM | 0.001 to 0.999 nM | 0.001 to 0.99 nM
5 | COC(=O)N[C@H](C(=O)N1CCC[C@H]1c1nc2ccc3cc(-c4ccc(-c5[nH]c([C@@H]6[C@H]7CC[C@H](C7)N6C(=O)[C@@H](NC(=O)OC)C(C)C)nc5Cl)cc4)ccc3c2[nH]1)C(C)C [Example 388] | – | – | – | > 44 nM | – | 0.001 to 0.99 nM | > 44 nM | 0.001 to 0.999 nM | 0.008 nM | 0.001 to 0.999 nM | 0.001 to 0.99 nM | – | – | –
6 | CC#Cc1cc(-c2cnc([C@@H]3CCCN3C(=O)[C@H](NC(=O)OC)c3ccccc3)[nH]2)ccc1-c1ccc2c(ccc3nc([C@@H]4CCCN4C(=O)[C@@H](NC(=O)OC)C(C)C)[nH]c32)c1 [Example 374] | – | – | – | 1 to 44 nM | – | 0.001 to 0.99 nM | 0.001 to 0.999 nM | 0.001 to 0.999 nM | 0.019 nM | 0.001 to 0.999 nM | 0.001 to 0.99 nM | – | – | –
7 | COC[C@H]1C[C@@H](c2nc3ccc4cc(-c5ccc6c(ccc7nc([C@@H]8C[C@H]9C[C@H]9N8C(=O)[C@@H](NC(=O)OC)C(C)C)[nH]c76)c5)ccc4c3[nH]2)N(C(=O)[C@@H](NC(=O)OC)C(C)C)C1 [Example 471] | – | – | – | 1 to 44 nM | – | 0.001 to 0.99 nM | 0.001 to 0.999 nM | 0.001 to 0.999 nM | 0.015 nM | 0.001 to 0.999 nM | 0.001 to 0.99 nM | – | – | –
8 | CC[C@H](C)[C@H](NC(=O)OC)C(=O)N1CCC[C@H]1c1nc2ccc3cc(-c4ccc5c(ccc6nc([C@@H]7C[C@H](COC)CN7C(=O)[C@H](NC(=O)OC)c7ccccc7)[nH]c65)c4)ccc3c2[nH]1 [Example 509] | – | – | – | 0.001 to 0.999 nM | – | 0.001 to 0.99 nM | 0.001 to 0.999 nM | – | 0.028 nM | – | – | 0.001 to 0.999 nM | 0.001 to 0.999 nM | 0.001 to 0.99 nM
9 | COC(=O)N[C@H](C(=O)N1CCC[C@H]1c1nc(Br)c(-c2cc3c4c(c2)OCc2cc(-c5[nH]c([C@@H]6CCCN6C(=O)[C@@H](NC(=O)OC)C(C)C)nc5Br)cc(c2-4)OC3)[nH]1)C(C)C [Example 473] | – | – | – | 1 to 44 nM | – | 0.001 to 0.99 nM | 1 to 44 nM | 0.001 to 0.999 nM | 0.015 nM | 0.001 to 0.999 nM | 0.001 to 0.99 nM | – | – | –
10 | CN(C)C(=O)N[C@@H](C(=O)N1CCC[C@H]1c1ncc(-c2cc3c4c(c2)OCc2cc(-c5cnc([C@@H]6CCCN6C(=O)[C@H](NC(=O)N(C)C)c6ccccc6)[nH]5)cc(c2-4)OC3)[nH]1)c1ccccc1 [Example 431] | – | – | – | 0.001 to 0.999 nM | – | 0.001 to 0.99 nM | 0.001 to 0.999 nM | 0.001 to 0.999 nM | 0.436 nM | 0.001 to 0.999 nM | 0.001 to 0.99 nM | – | – | –
